In ChEMBL document CHEMBL1201861, “Genomics of Drug Sensitity in Cancer screening data, Wellcome Trust Sanger Institute”:

Legend:
Experiment in all cases: cells
Format in all cases: functional, cell-based
Settings in all cases: Homo sapiens
[1] = test system: YT
Description: SANGER: Inhibition of human YT cell growth in a cell viability assay.

[2] = test system: NCI-H1522;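 note: growth inhibition of NCI-H1522 cells, read out with a cell viability assay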
Description: SANGER: Inhibition of human NCI-H1522 cell growth in a cell viability assay.

[3] = test system: EB2;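 note: growth inhibition of EB2 cells, read out with a cell viability assay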
Description: SANGER: Inhibition of human EB2 cell growth in a cell viability assay.

[4] = test system: MRK-nu-1;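 note: cell viability assay measuring growth suppression of human MRK-nu-1 cells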
Description: SANGER: Inhibition of human MRK-nu-1 cell growth in a cell viability assay.

[5] = test system: REH;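 note: growth inhibition of REH cells determined with a cell viability read-out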
Description: SANGER: Inhibition of human REH cell growth in a cell viability assay.

[6] = test system: SNU-C1;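 note: growth inhibition of SNU-C1 human cells, read out by a cell viability assay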
Description: SANGER: Inhibition of human SNU-C1 cell growth in a cell viability assay.

[7] = test system: NCI-H524;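 note: growth inhibition of human NCI-H524 cells, read out through a cell viability assay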
Description: SANGER: Inhibition of human NCI-H524 cell growth in a cell viability assay.

[8] = test system: HCC2157;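 note: growth inhibition of the cancer cell line, read out as cell viability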
Description: SANGER: Inhibition of human HCC2157 cell growth in a cell viability assay.

[9] = test system: TE-15;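 note: cell viability readout of growth inhibition in TE-15 cells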
Description: SANGER: Inhibition of human TE-15 cell growth in a cell viability assay.

[10] = test system: NCI-H2196;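 note: cell viability assay used as the readout of growth inhibition in NCI-H2196 cells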
Description: SANGER: Inhibition of human NCI-H2196 cell growth in a cell viability assay.

[11] = test system: CPC-N;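 note: growth inhibition of CPC-N cells, with a cell viability assay as the readout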
Description: SANGER: Inhibition of human CPC-N cell growth in a cell viability assay.

[12] = test system: NCI-H889;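 note: cell growth inhibition of the cell line, read out with a viability assay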
Description: SANGER: Inhibition of human NCI-H889 cell growth in a cell viability assay.

[13] = test system: NCI-H1882;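 note: growth inhibition of the cell line, determined with a viability assay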
Description: SANGER: Inhibition of human NCI-H1882 cell growth in a cell viability assay.

[14] = test system: HCC70;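 note: cell viability assay measuring how strongly the compound suppresses proliferation of HCC70 cells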
Description: SANGER: Inhibition of human HCC70 cell growth in a cell viability assay.

[15] = test system: SW1573;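 note: growth inhibition of SW1573 cells, read out with a cell viability assay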
Description: SANGER: Inhibition of human SW1573 cell growth in a cell viability assay.

[16] = test system: SK-MEL-24;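 note: growth inhibition read out by a cell viability assay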
Description: SANGER: Inhibition of human SK-MEL-24 cell growth in a cell viability assay.

[17] = test system: MC-IXC;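 note: growth inhibition of MC-IXC cells, read out with a cell viability assay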
Description: SANGER: Inhibition of human MC-IXC cell growth in a cell viability assay.

[18] = test system: SBC-5;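 note: cell viability assay read-out, IC50 is the concentration that inhibits growth of the cells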
Description: SANGER: Inhibition of human SBC-5 cell growth in a cell viability assay.

[19] = test system: ACHN;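 note: cell viability read-out used to gauge how strongly growth of human ACHN cells is suppressed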
Description: SANGER: Inhibition of human ACHN cell growth in a cell viability assay.

[20] = test system: CAL-85-1;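 note: growth inhibition of human CAL-85-1 cells, read out with a cell viability assay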
Description: SANGER: Inhibition of human CAL-85-1 cell growth in a cell viability assay.

[21] = test system: COLO-680N;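 note: cell viability assay used to measure inhibition of COLO-680N cell growth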
Description: SANGER: Inhibition of human COLO-680N cell growth in a cell viability assay.

[22] = test system: CAL-54;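 note: growth inhibition of CAL-54 cells, read out by a viability measurement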
Description: SANGER: Inhibition of human CAL-54 cell growth in a cell viability assay.

[23] = test system: JEG-3;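 note: growth inhibition of human JEG-3 cells, read out with a cell viability assay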
Description: SANGER: Inhibition of human JEG-3 cell growth in a cell viability assay.

[24] = test system: D-542MG
Description: SANGER: Inhibition of human D-542MG cell growth in a cell viability assay.

[25] = test system: Ca9-22;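 note: growth inhibition of Ca9-22 cells, read out with a cell viability assay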
Description: SANGER: Inhibition of human Ca9-22 cell growth in a cell viability assay.

[26] = test system: SiHa;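 note: Viability-based readout of growth inhibition in SiHa cells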
Description: SANGER: Inhibition of human SiHa cell growth in a cell viability assay.

[27] = test system: NCI-H2347;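 note: growth inhibition of the cell line, read out with a cell viability assay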
Description: SANGER: Inhibition of human NCI-H2347 cell growth in a cell viability assay.

[28] = test system: KP-4;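 note: human KP-4 cells, with growth inhibition read out through a cell viability assay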
Description: SANGER: Inhibition of human KP-4 cell growth in a cell viability assay.

[29] = test system: DOK;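 note: cell viability assay read-out, values reflect inhibition of cell growth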
Description: SANGER: Inhibition of human DOK cell growth in a cell viability assay.

[30] = test system: UACC-62;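 note: growth inhibition of human UACC-62 cells, read out by a cell viability assay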
Description: SANGER: Inhibition of human UACC-62 cell growth in a cell viability assay.

[31] = test system: ME-180;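 note: cell viability assay measuring growth inhibition of ME-180 cells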
Description: SANGER: Inhibition of human ME-180 cell growth in a cell viability assay.

[32] = test system: MHH-ES-1;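 note: cell growth inhibition measured by a cell viability assay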
Description: SANGER: Inhibition of human MHH-ES-1 cell growth in a cell viability assay.

[33] = test system: NCI-H650;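 note: growth inhibition of NCI-H650 cells, read out by a viability assay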
Description: SANGER: Inhibition of human NCI-H650 cell growth in a cell viability assay.

[34] = test system: CaR-1;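 note: growth inhibition of human CaR-1 cancer cells, read out with a cell viability assay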
Description: SANGER: Inhibition of human CaR-1 cell growth in a cell viability assay.

[35] = test system: LCLC-97TM1;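 note: cell viability assay measuring growth inhibition of human LCLC-97TM1 cells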
Description: SANGER: Inhibition of human LCLC-97TM1 cell growth in a cell viability assay.

[36] = test system: HuO-3N1;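 note: cell viability readout used to measure how strongly compounds suppress proliferation of human HuO-3N1 cells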
Description: SANGER: Inhibition of human HuO-3N1 cell growth in a cell viability assay.

[37] = test system: Huh-7;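 note: HuH-7 cell growth inhibition, read out with a cell viability assay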
Description: SANGER: Inhibition of human HuH-7 cell growth in a cell viability assay.

[38] = test system: HCT-116
Description: SANGER: Inhibition of human HCT-116 cell growth in a cell viability assay.

[39] = test system: COLO-679
Description: SANGER: Inhibition of human COLO-679 cell growth in a cell viability assay.

[40] = test system: MKN-28;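 note: cell viability assay read-out, IC50 reflects suppression of growth of human MKN-28 cells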
Description: SANGER: Inhibition of human MKN28 cell growth in a cell viability assay.

[41] = test system: SK-N-AS;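 note: growth inhibition of human SK-N-AS cells, measured with a cell viability assay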
Description: SANGER: Inhibition of human SK-N-AS cell growth in a cell viability assay.

[42] = test system: NCI-H810;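 note: IC50 reflects inhibition of cancer cell line growth, read out with a cell viability assay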
Description: SANGER: Inhibition of human NCI-H810 cell growth in a cell viability assay.

[43] = test system: 786-0
Description: SANGER: Inhibition of human 786-0 cell growth in a cell viability assay.

[44] = test system: DBTRG-05MG;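 note: cell viability assay measuring growth inhibition of human DBTRG-05MG cells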
Description: SANGER: Inhibition of human DBTRG-05MG cell growth in a cell viability assay.

[45] = test system: NCI-H2122;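 note: growth inhibition of the cells, read out with a cell viability assay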
Description: SANGER: Inhibition of human NCI-H2122 cell growth in a cell viability assay.

[46] = test system: MDA-MB-453
Description: SANGER: Inhibition of human MDA-MB-453 cell growth in a cell viability assay.

[47] = test system: NCI-H1437;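 note: growth inhibition of human NCI-H1437 cells, read out by a cell viability assay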
Description: SANGER: Inhibition of human NCI-H1437 cell growth in a cell viability assay.

[48] = test system: RO82-W-1;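 note: growth inhibition of human RO82-W-1 cells, measured with a cell viability assay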
Description: SANGER: Inhibition of human RO82-W-1 cell growth in a cell viability assay.

[49] = test system: T47D;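 note: growth inhibition of human T47D cells, measured with a cell viability assay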
Description: SANGER: Inhibition of human T47D cell growth in a cell viability assay.

[50] = test system: OAW-42;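 note: growth inhibition of OAW-42 cells, read out with a cell viability assay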
Description: SANGER: Inhibition of human OAW-42 cell growth in a cell viability assay.

[51] = test system: OAW-28;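 note: growth inhibition of OAW-28 cells, read out with a cell viability assay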
Description: SANGER: Inhibition of human OAW-28 cell growth in a cell viability assay.

[52] = test system: NCI-H1651;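 note: Read-out is a cell viability assay, with IC50 expressing inhibition of NCI-H1651 cell growth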
Description: SANGER: Inhibition of human NCI-H1651 cell growth in a cell viability assay.

[53] = test system: HCT-15;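 note: cell viability readout, IC50 reflecting suppression of HCT-15 cell growth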
Description: SANGER: Inhibition of human HCT-15 cell growth in a cell viability assay.

[54] = test system: SW948;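 note: growth inhibition of SW948 cells, read out with a cell viability assay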
Description: SANGER: Inhibition of human SW948 cell growth in a cell viability assay.

[55] = test system: PC-3;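 note: cell viability assay measuring growth inhibition of PC-3 cells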
Description: SANGER: Inhibition of human PC-3 cell growth in a cell viability assay.

[56] = test system: NCI-H28
Description: SANGER: Inhibition of human NCI-H28 cell growth in a cell viability assay.

[57] = test system: Capan-2
Description: SANGER: Inhibition of human Capan-2 cell growth in a cell viability assay.

[58] = test system: HMV-2 cell line
Description: SANGER: Inhibition of human HMV-II cell growth in a cell viability assay.

[59] = test system: SW1783
Description: SANGER: Inhibition of human SW1783 cell growth in a cell viability assay.

[60] = test system: NCI-H1563
Description: SANGER: Inhibition of human NCI-H1563 cell growth in a cell viability assay.

[61] = test system: ChaGo-K-1
Description: SANGER: Inhibition of human ChaGo-K-1 cell growth in a cell viability assay.

[62] = test system: EFO-21
Description: SANGER: Inhibition of human EFO-21 cell growth in a cell viability assay.

[63] = test system: HCC 2998
Description: SANGER: Inhibition of human HCC2998 cell growth in a cell viability assay.

CCNc1cc(N[C@H]2CC[C@@H](O)CC2)nc(Nc2ccc3c(ccn3Cc3ccccc3)c2)n1
IC50 [1]: > 5120 nM | IC50 [2]: > 5120 nM | IC50 [3]: > 5120 nM | IC50 [4]: 3090 nM | IC50 [5]: > 5120 nM | IC50 [6]: > 5120 nM | IC50 [7]: > 5120 nM | IC50 [8]: > 5120 nM | IC50 [9]: 5120 nM | IC50 [10]: > 5120 nM | IC50 [11]: > 5120 nM | IC50 [12]: > 5120 nM | IC50 [13]: > 5120 nM

C[C@]12O[C@H](C[C@]1(O)CO)n1c3ccccc3c3c4c(c5c6ccccc6n2c5c31)CNC4=O [LESTAURTINIB]
IC50 [14]: > 2000 nM | IC50 [15]: 1070 nM | IC50 [16]: > 2000 nM | IC50 [17]: 13.5 nM | IC50 [18]: 254 nM | IC50 [19]: 104 nM | IC50 [20]: > 2000 nM | IC50 [21]: > 2000 nM | IC50 [22]: 178 nM | IC50 [23]: 730 nM | IC50 [24]: > 2000 nM | IC50 [25]: 900 nM | IC50 [26]: > 2000 nM | IC50 [27]: > 2000 nM | IC50 [28]: 568 nM | IC50 [29]: 297 nM | IC50 [30]: 1120 nM | IC50 [31]: 737 nM | IC50 [32]: 321 nM | IC50 [33]: 677 nM | IC50 [34]: 147 nM | IC50 [35]: 427 nM | IC50 [36]: 605 nM | IC50 [37]: > 2000 nM | IC50 [38]: 137 nM | IC50 [39]: 383 nM | IC50 [40]: > 2000 nM | IC50 [41]: 145 nM | IC50 [42]: 995 nM | IC50 [43]: 1560 nM | IC50 [44]: > 2000 nM | IC50 [45]: 1920 nM | IC50 [46]: 1910 nM | IC50 [47]: > 2000 nM | IC50 [48]: > 2000 nM | IC50 [49]: > 2000 nM | IC50 [50]: 349 nM | IC50 [51]: > 2000 nM | IC50 [52]: > 2000 nM | IC50 [53]: 566 nM | IC50 [54]: > 2000 nM | IC50 [55]: 1710 nM | IC50 [56]: 833 nM | IC50 [57]: > 2000 nM | IC50 [58]: 55.8 nM | IC50 [59]: 1600 nM | IC50 [60]: > 2000 nM | IC50 [61]: 1960 nM | IC50 [62]: > 2000 nM | IC50 [63]: 554 nM

C[C@]1(c2nc3c(C(N)=O)cccc3[nH]2)CCCN1 [VELIPARIB]
IC50 [14]: > 5000 nM | IC50 [15]: > 5000 nM | IC50 [16]: > 5000 nM | IC50 [17]: > 5000 nM | IC50 [18]: > 5000 nM | IC50 [19]: > 5000 nM | IC50 [20]: > 5000 nM | IC50 [21]: > 5000 nM | IC50 [22]: > 5000 nM | IC50 [23]: > 5000 nM | IC50 [24]: > 5000 nM | IC50 [25]: > 5000 nM | IC50 [26]: > 5000 nM | IC50 [27]: > 5000 nM | IC50 [28]: > 5000 nM | IC50 [29]: > 5000 nM | IC50 [30]: > 5000 nM | IC50 [31]: > 5000 nM | IC50 [32]: > 5000 nM | IC50 [33]: > 5000 nM | IC50 [34]: > 5000 nM | IC50 [35]: > 5000 nM | IC50 [36]: > 5000 nM | IC50 [37]: > 5000 nM | IC50 [38]: > 5000 nM | IC50 [39]: > 5000 nM | IC50 [40]: > 5000 nM | IC50 [41]: > 5000 nM | IC50 [42]: > 5000 nM | IC50 [43]: > 5000 nM | IC50 [44]: > 5000 nM | IC50 [45]: > 5000 nM | IC50 [46]: > 5000 nM | IC50 [47]: > 5000 nM | IC50 [48]: > 5000 nM | IC50 [49]: > 5000 nM | IC50 [50]: > 5000 nM | IC50 [51]: > 5000 nM | IC50 [52]: > 5000 nM | IC50 [53]: > 5000 nM | IC50 [54]: > 5000 nM | IC50 [55]: > 5000 nM | IC50 [56]: > 5000 nM | IC50 [57]: > 5000 nM | IC50 [58]: > 5000 nM | IC50 [59]: > 5000 nM | IC50 [60]: > 5000 nM | IC50 [61]: > 5000 nM | IC50 [62]: > 5000 nM | IC50 [63]: > 5000 nM

CC[C@]1(O)C[C@@H]2CN(CCc3c([nH]c4ccccc34)[C@@](C(=O)OC)(c3cc4c(cc3OC)N(C)[C@H]3[C@@](O)(C(=O)OC)[C@H](OC(C)=O)[C@]5(CC)C=CCN6CC[C@]43[C@@H]65)C2)C1 [VINBLASTINE]
IC50 [14]: 20.8 nM | IC50 [15]: 33.2 nM | IC50 [16]: 31.5 nM | IC50 [17]: 2.99 nM | IC50 [18]: 7.47 nM | IC50 [19]: 59 nM | IC50 [20]: > 100 nM | IC50 [21]: 74.7 nM | IC50 [22]: 60.6 nM | IC50 [23]: 12.5 nM | IC50 [24]: > 100 nM | IC50 [25]: 6.39 nM | IC50 [26]: > 100 nM | IC50 [27]: > 100 nM | IC50 [28]: 2.37 nM | IC50 [29]: 4.2 nM | IC50 [30]: 8.06 nM | IC50 [31]: 4.47 nM | IC50 [32]: 5.13 nM | IC50 [33]: 27.1 nM | IC50 [34]: 45.7 nM | IC50 [35]: 5.49 nM | IC50 [36]: 4.83 nM | IC50 [37]: 87.7 nM | IC50 [38]: 3.63 nM | IC50 [39]: > 100 nM | IC50 [40]: 2.7 nM | IC50 [41]: 8.67 nM | IC50 [42]: 68.7 nM | IC50 [43]: 15.6 nM | IC50 [44]: > 100 nM | IC50 [45]: 3.44 nM | IC50 [46]: 3.29 nM | IC50 [47]: 7.76 nM | IC50 [48]: 5.57 nM | IC50 [49]: 7.71 nM | IC50 [50]: > 100 nM | IC50 [51]: 40.7 nM | IC50 [52]: 23 nM | IC50 [53]: 78.6 nM | IC50 [54]: 76 nM | IC50 [55]: 33.4 nM | IC50 [56]: 34.3 nM | IC50 [57]: > 100 nM | IC50 [58]: 3.9 nM | IC50 [59]: 85.5 nM | IC50 [60]: 21.5 nM | IC50 [61]: 1.01 nM | IC50 [62]: 44 nM | IC50 [63]: 19.8 nM
